Laboratory results from patent US3935203A, “Derivatives of 3-oxo-2,3-dihydro-1,4-benzoxazine” (CERPHA, priority 1972, dated 1976).

Key:
[1] = system: pain induced by heat contact stimulation; test: Analgesic activity, Eddy's test in mice (hot plate); type: in vivo; settings: for ED50 / inhibition in vivo at 200 mg/kg / inhibition in vivo at 400 mg/kg: Mus musculus, po, 0.5 h; for ED50 / ED50 Eddy's test: per os, 30 minutes after administration, heat stimulus; for ED50 Eddy's test: 30 min; for inhibition in vivo at 200 mg/kg: 200 mg/kg per os; for inhibition in vivo at 400 mg/kg: 400 mg/kg per os
Method: (§1) Pain is induced by heat contact stimulation (mice placed on a heating plate kept at 56.5°C) and the time taken to react to the stimulus (licking of the front paws) is measured.
(§2) Batches of 10 animals selected at random are examined 30 minutes after the oral administration of the product to be tested in a gummy suspension.
(§3) The percentage of analgesic activity is established by taking as 100% activity the average response time of the control animals increased by 10 seconds.

in vivo = settings: mouse, po
[2] = system: pain induced by the intraperitoneal injection of acetic acid; test: Analgesic activity, Koster's test on mice (acetic acid writhing); type: in vivo, male mice; settings: for ED50 / inhibition in vivo at 200 mg/kg / inhibition in vivo at 400 mg/kg: Mus musculus, po; for inhibition in vivo at 200 mg/kg: 200 mg/kg per os; for inhibition in vivo at 400 mg/kg: 400 mg/kg per os
Method: (§4) The pain is induced by the intraperitoneal injection of 0.10 ml/10 g of a 3% acetic acid solution.
(§5) The painful crises thus obtained (writhing of the trunk, stretching of the hind legs) are counted for 20 minutes following the injection.
(§6) The product to be tested was administered 30 minutes before the pain had been induced in batches of 10 male mice distributed at random. The percentage of analgesic activity is represented by the percentage decrease in the number of reactions established in relation to the controls.

[3] = system: pain (heat stimulus and chemical stimulus); test: Antalgic power compared with amidopyrine (Eddy's and Koster's tests); type: in vivo, mice; settings: per os, reference amidopyrine
Method: as §1, §2, §3, §4, §5, §6

kaolin oedema = test: Anti-oedematous activity, kaolin oedema in rats (Wilhelmi and Domenjoz); type: in vivo, male rats; settings: per os; for ED50: Rattus norvegicus, po, paw volume 5 hours after kaolin, read-out: Kaolin oedema test ED50 per os
Method: 3. […] ACTIVITY Kaolin oedema in rats in accordance with […] The product to be tested was orally administered to batches of 8 male rats distributed at random 30 minutes before the intraplantar injection of 0.15 ml. of a 10% kaolin suspension. The volume of the paw is measured by plethysmography 5 hours after injection of the irritant. For each rat, the percentage oedema is evaluated in relation to the initial volume. The percentage activity corresponds to the percentage decrease in oedema (average oedema of the treated animals in comparison with the average oedema of the control animals).

[4] = Table III
[5] = per os, 30 minutes before acetic acid, chemical stimulus

| Structure (SMILES) | ED50 [1] [mg/kg] | LD50 (in vivo) [mg/kg] | ED50 [2, 5] [mg/kg] | ED50 (kaolin oedema) [mg/kg] | further results |
| --- | --- | --- | --- | --- | --- |
| CCC1Oc2ccc(Br)cc2N(CC(O)CO)C1=O (stereo not drawn) [Example 10, 2-ethyl-3-oxo-4-(2,3-dihydroxypropyl)-6-bromo-2,3-dihydro-1,4-benzoxazine] | 200 | > 1500 | 300 |  |  |
| CC1Oc2ccc(Cl)cc2N(CC(O)CO)C1=O (stereo not drawn) [Example 1, 2-methyl-3-oxo-4-(2,3-dihydroxypropyl)-6-chloro-2,3-dihydro-1,4-benzoxazine] | 60 | 850 | 60 |  | ED50 Eddy's test [1]: 63 mg/kg; ED50 Koster's test [2, 5]: 57 mg/kg; antalgic power relative to amidopyrine [3]: as much as five times the activity of this reference product |
| COc1ccc2c(c1)N(CC(O)CO)C(=O)C(C)O2 (stereo not drawn) [Example 11, 2-methyl-3-oxo-4-(2,3-dihydroxypropyl)-6-methoxy-2,3-dihydro-1,4-benzoxazine] |  | > 1000 |  | 200 | inhibition in vivo at 200 mg/kg [1]: 16%; DL50 per os in mice [4]: > 1000 mg/kg; inhibition in vivo at 200 mg/kg [2]: 10% |
| CCCCC1C(=O)N(c2ccccc2)N(c2ccccc2)C1=O [Phenylbutazone, phenylbutazone, reference compound] |  |  |  | 200 |  |
| O=C1COc2ccc(Cl)cc2N1CC(O)CO (stereo not drawn) [Example 3, 3-oxo-4-(2,3-dihydroxypropyl)-6-chloro-2,3-dihydro-1,4-benzoxazine] | 200 | 1700 | 100 | 200 | anti-oedematous activity compared with phenylbutazone (kaolin oedema; reference phenylbutazone): comparable with that of phenylbutazone |
| CC1Oc2cc(Br)c(Cl)cc2N(CC(O)CO)C1=O (stereo not drawn) [Example 4, 2-methyl-3-oxo-4-(2,3-dihydroxypropyl)-6-chloro-7-bromo-2,3-dihydro-1,4-benzoxazine] |  | > 1500 |  |  | inhibition in vivo at 400 mg/kg [1]: 42%; inhibition in vivo at 400 mg/kg [2]: 68% |
| CCCCC1Oc2ccc(Cl)cc2N(CC(O)CO)C1=O (stereo not drawn) [Example 13, 2-n-butyl-3-oxo-4-(2,3-dihydroxypropyl)-6-chloro-2,3-dihydro-1,4-benzoxazine] | 100 | 1500 | 100 |  |  |
| CC1Oc2ccc([N+](=O)[O-])cc2N(CC(O)CO)C1=O (stereo not drawn) [Example 7, 2-methyl-3-oxo-4-(2,3-dihydroxypropyl)-6-nitro-2,3-dihydro-1,4-benzoxazine] | 300 | > 1000 | 300 | 400 | DL50 per os in mice [4]: > 1000 mg/kg |
| CC(=O)OCC(CN1C(=O)C(C)Oc2ccc(Cl)cc21)OC(C)=O (stereo not drawn) [Example 14, 2-methyl-3-oxo-4-(2,3-diacetoxypropyl)-6-chloro-2,3-dihydro-1,4-benzoxazine] |  | > 1500 |  | 400 | inhibition in vivo at 400 mg/kg [1]: 43%; DL50 per os in mice [4]: > 1500 mg/kg; inhibition in vivo at 400 mg/kg [2]: 35% |
| Cc1c(N(C)C)c(=O)n(-c2ccccc2)n1C [Amidopyrine, amidopyrine, reference compound] | 300 | 1850 | 120 |  |  |
| CCC1Oc2ccc(Cl)cc2N(CC(COC(C)=O)OC(C)=O)C1=O (stereo not drawn) [Example 15, 2-ethyl-3-oxo-4-(2,3-diacetoxypropyl)-6-chloro-2,3-dihydro-1,4-benzoxazine] |  | > 1500 |  | 400 | inhibition in vivo at 200 mg/kg [1]: 14%; DL50 per os in mice [4]: > 1500 mg/kg; inhibition in vivo at 200 mg/kg [2]: 20% |
| CCCc1cc(OC)c2c(c1)N(CC(O)CO)C(=O)C(C)O2 (stereo not drawn) [Example 6, 2-methyl-3-oxo-4-(2,3-dihydroxypropyl)-6-n-propyl-8-methoxy-2,3-dihydro-1,4-benzoxazine] |  | > 1500 |  |  | inhibition in vivo at 400 mg/kg [1]: 52%; inhibition in vivo at 400 mg/kg [2]: 46% |
| Cc1ccc2c(c1)N(CC(O)CO)C(=O)C(C)O2 (stereo not drawn) [Example 5, 2-methyl-3-oxo-4-(2,3-dihydroxypropyl)-6-methyl-2,3-dihydro-1,4-benzoxaine] |  | > 1500 |  |  | inhibition in vivo at 400 mg/kg [1]: 60%; inhibition in vivo at 400 mg/kg [2]: 66% |
| C=CCc1cc(OC)c2c(c1)N(CC(O)CO)C(=O)C(C)O2 (stereo not drawn) [Example 12, 2-methyl-3-oxo-4-(2,3-dihydroxypropyl)-6-allyl-8-methoxy-2,3-dihydro-1,4-benzoxazine] | 300 | > 1500 | 300 |  |  |
| CCCC1Oc2ccc(Cl)cc2N(CC(O)CO)C1=O (stereo not drawn) [Example 9, 2-n-propyl-3-oxo-4-(2,3-dihydroxypropyl)-6-chloro-2,3-dihydro-1,4-benzoxazine] | 100 | > 1500 | 80 |  |  |
| CC(=O)OCC(CN1C(=O)COc2ccc(Cl)cc21)OC(C)=O (stereo not drawn) [Example 16, 3-oxo-4-(2,3-diacetoxypropyl)-6-chloro-2,3-dihydro-1,4-benzoxazine] |  | > 1500 |  | 400 | inhibition in vivo at 400 mg/kg [1]: 28%; DL50 per os in mice [4]: > 1500 mg/kg; inhibition in vivo at 400 mg/kg [2]: 51% |
| CCC1Oc2ccc(Cl)cc2N(CC(O)CO)C1=O (stereo not drawn) [Example 2, 2-ethyl-3-oxo-4-(2,3-dihydroxypropyl)-6-chloro-2,3-dihydro-1,4-benzoxazine] | 60 | 1660 | 60 |  | ED50 Eddy's test [1]: 61 mg/kg; antalgic power relative to amidopyrine [3]: as much as five times the activity of this reference product |
| CCC1Oc2ccccc2N(CC(O)CO)C1=O (stereo not drawn) [Example 8, 2-ethyl-3-oxo-4-(2,3-dihydroxypropyl)-2,3-dihydro-1,4-benzoxazine] |  | 1200 |  |  | inhibition in vivo at 200 mg/kg [1]: 5%; inhibition in vivo at 200 mg/kg [2]: 21% |
